Legend:
[1] = target: T1, N-formyl peptide receptor 2 (Homo sapiens, UniProt P25090); test: Agonist activity at human FPR2 overexpressing CHO cells assessed as reduction in intracellular cAMP level incubated for 30 mins by HTRF assay; format: functional, cell-based
T1 sequence (P25090 whole entry): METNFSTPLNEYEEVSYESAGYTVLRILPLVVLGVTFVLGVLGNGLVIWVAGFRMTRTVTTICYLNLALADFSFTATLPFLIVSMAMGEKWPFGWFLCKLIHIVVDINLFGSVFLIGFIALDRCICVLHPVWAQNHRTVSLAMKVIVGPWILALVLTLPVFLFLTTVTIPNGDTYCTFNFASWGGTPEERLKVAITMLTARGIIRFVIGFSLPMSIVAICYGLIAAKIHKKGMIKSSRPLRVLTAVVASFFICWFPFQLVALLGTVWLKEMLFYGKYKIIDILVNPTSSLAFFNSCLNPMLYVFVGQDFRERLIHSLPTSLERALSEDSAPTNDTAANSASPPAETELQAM

[2] = AUC (0 to infinity) in C57BL6 mouse at 3 mg/kg, po and measured upto 24 hrs by LC-MS/MS analysis; format: ADME, organism-based; parameters: dose 3 mg/kg, time < 24 hrs, route po; details: in vivo
[3] = Permeability of the compound at pH 5.5 by PAMPA assay; format: ADME; details: read-out: permeability
[4] = Protein binding in human assessed as free fraction; format: ADME
Peritoneal macrophage = test: Induction of phagocytosis in mouse peritoneal macrophages assessed as increase in FITC signal preincubated with compound for 15 mins followed by zymosan addition and measured after 1 hr by Trypan Blue based FITC analysis

EC50 [1] [nM]	SMILES	also measured
110	COc1cc(F)c([C@@H]2CNC(=O)[C@H]2c2nc3cc(Cl)ccc3[nH]2)c(F)c1	–
> 10000	COc1cc(F)c([C@@H]2CNC(=O)[C@H]2Nc2cc(-c3ccc(Cl)cc3)[nH]n2)c(F)c1	–
> 10000	COc1cc(F)c([C@@H]2CNC(=O)[C@H]2Nc2nnc(-c3ccccc3Cl)o2)c(F)c1	–
40	COc1ccc([C@@H]2CNC(=O)[C@H]2Nc2nnc(-c3ccc(Cl)cc3)o2)c(F)c1	–
40	COc1cc(F)c([C@@H]2CNC(=O)[C@H]2c2nc3cc(Cl)cnc3[nH]2)c(F)c1	–
1300	COc1cc(F)c([C@@H]2CNC(=O)[C@H]2Nc2nc3ccccc3[nH]2)c(F)c1	–
250	COc1cc(F)c([C@@H]2CNC(=O)[C@H]2Nc2nnc(-c3ccccc3)o2)c(F)c1	–
–	COc1cc(F)c([C@@H]2CNC(=O)[C@H]2Nc2cc(-c3ccc(Cl)cc3)on2)c(F)c1	AUC(0-inf) [2]: 15 µM·h; Papp [3]: 110 ×10⁻⁶ cm/s; fraction unbound [4]: 0.005
> 10000	COc1cc(F)c([C@@H]2CNC(=O)[C@H]2Nc2cc(-c3ccc(Cl)cc3)n(C)n2)c(F)c1	–
2500	COc1cc(F)c([C@@H]2CNC(=O)[C@H]2Nc2noc(-c3ccc(Cl)cc3)n2)c(F)c1	–
3500	COc1cc(F)c([C@@H]2CNC(=O)[C@H]2Nc2nc(-c3ccc(Cl)cc3)no2)c(F)c1	–
> 10000	COc1cc(F)c([C@@H]2CNC(=O)[C@H]2c2nc3c(Cl)cccc3[nH]2)c(F)c1	–
53	COc1cc(F)c([C@@H]2CNC(=O)[C@H]2Nc2nnc(-c3ccc(OC(F)(F)F)cc3)o2)c(F)c1	–
2200	COc1cc(F)c([C@@H]2CNC(=O)[C@H]2Nc2cc(-c3ccc(Cl)cc3)no2)c(F)c1	–
250	COc1cc(F)c([C@@H]2CNC(=O)[C@H]2Nc2ncc(-c3ccc(Cl)cc3)o2)c(F)c1	–
37	COc1cc(F)c([C@@H]2CNC(=O)[C@H]2Nc2nnc(-c3ccc(Cl)cc3)s2)c(F)c1	–
840	COc1cc(F)c([C@@H]2CNC(=O)[C@H]2Nc2nnc(-c3ccc(Cl)cc3F)o2)c(F)c1	–
3700	COc1ccc(-c2nnc(N[C@@H]3C(=O)NC[C@H]3c3c(F)cc(OC)cc3F)o2)cc1	–
160	COc1ccc([C@@H]2CNC(=O)[C@H]2Nc2nnc(-c3ccc(Cl)cc3)o2)cc1	–
2300	COc1cc(F)c([C@@H]2CNC(=O)[C@H]2c2nc3nc(Cl)ccc3[nH]2)c(F)c1	–
> 10000	COc1cc(F)c([C@@H]2CNC(=O)[C@H]2Nc2nnc(-c3cccc(Cl)c3)o2)c(F)c1	–
> 5000	COc1cc(F)c([C@@H]2CNC(=O)[C@H]2c2nc3cc(OC)ccc3[nH]2)c(F)c1	–
680	COc1cc(F)c([C@@H]2CNC(=O)[C@H]2c2nc3ccccc3[nH]2)c(F)c1	–
–	COc1cc(F)c([C@@H]2CNC(=O)[C@H]2NC(=O)Nc2ccccc2)c(F)c1 [BMS-986235]	EC50 (Peritoneal macrophage): < 1 nM; AUC(0-inf) [2]: 5.6 µM·h; Papp [3]: 44 ×10⁻⁶ cm/s; fraction unbound [4]: 0.127

SMILES	EC50 [1] [nM]	also measured
COc1cc(F)c([C@@H]2CNC(=O)[C@H]2Nc2nnc(-c3ccc(Cl)cc3)o2)c(F)c1	32	AUC(0-inf) [2]: 8.4 µM·h; Papp [3]: 97 ×10⁻⁶ cm/s; fraction unbound [4]: 0.015

Source: ChEMBL document CHEMBL5131560, “Discovery of Heteroaryl Urea Isosteres for Formyl Peptide Receptor 2 Agonists” (ACS Med Chem Lett, 2022)
